The results in this text go back to patent publication US11274111B2, “Arginase inhibitors and methods of use” (Merck Sharp & Dohme Corp., priority 2018, dated 2022).

The target in the assay is T1, Arginase (Homo sapiens, UniProt P05089).
T1 construct: Arginase protein was recombinantly expressed in Escherichia coli
T1 sequence (P05089 1-322): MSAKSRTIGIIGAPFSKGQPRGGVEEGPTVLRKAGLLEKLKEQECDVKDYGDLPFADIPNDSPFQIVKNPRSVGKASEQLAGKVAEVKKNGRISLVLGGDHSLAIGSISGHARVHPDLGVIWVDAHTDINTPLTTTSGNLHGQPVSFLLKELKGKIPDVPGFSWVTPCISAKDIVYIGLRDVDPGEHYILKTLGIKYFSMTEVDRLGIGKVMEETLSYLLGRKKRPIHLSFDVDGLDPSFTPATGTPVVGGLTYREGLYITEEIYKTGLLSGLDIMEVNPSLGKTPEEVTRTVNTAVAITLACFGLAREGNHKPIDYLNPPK
In words: Arginase Thioornithine Generating Assay (TOGA). It is filed as biochemical. Particulars: for inhibition at 100 µM: Top Dose 100000 nM; for IC50: recombinant arginase 1.88 nM, thioarginine substrate. On the procedure: Arginase Thioornithine Generating Assay (TOGA)
Compounds were serially diluted in ten 3-fold steps in DMSO starting from 10 mM DMSO stocks. Compound dilutions or DMSO alone were then dispensed from the dilution plate into a Greiner black 384-well assay plate (catalog #781086) using an Echo 555 acoustic liquid handler (Labcyte).
Arginase protein was recombinantly expressed in Escherichia coli. Purified protein was then diluted in assay buffer (50 mM Tris pH 7.5, 50 mM NaCl, 1 mM manganese chloride, 0.05% bovine serum albumin to obtain a final Arginase concentration of 1.88 nM. Arginase solution (20 μL) or buffer alone (20 μL) were dispensed to wells of the assay plate using a BioRAPTR liquid dispenser (Beckman Coulter). Assay plates containing compound and arginase enzyme were incubated at room temperature for 30 minutes. Afterwards, 5 μL of 2.5 mM thioarginine (Cayman Chemicals) in assay buffer were added to each well of the assay plate using a BioRAPTR liquid dispenser. Plates were incubated at room temperature for 60 minutes and reactions were quenched by addition of 15 μL of 200 uM 7-Diethylamine-3-(4-maleimidophenyl)-4-methylcoumarin (Sigma Chemical) in 70% ethanol. Plates were briefly shaken to mix and the fluorescence was measured in an Spectramax plate reader (Molecular Devices) with a 410 nm excitation wavelength and an 490 nm emission wavelength.
Potencies were calculated by […] to the four parameter logistic IC50 equation.

The mark [1] stands for this setting: Top Dose 10000 nM, read-out: Percent Inhibition at Top Dose.
Setting [2] is: read-out: Percent Inhibition at Top Dose, Top Dose 10000 nM.
[3] abbreviates: read-out: Percent Inhibition at Top Dose.

Counter-ions that a name gives are not always drawn. Like-named read-outs stand apart in the source and are kept apart here.

As for `NC1(C(=O)O)c2cnccc2CC1CCCB(O)O` (centres unmarked) [Example 30, 7-amino-6-(3-boronopropyl)-6,7-dihydro-5H-cyclopenta[c]pyridine-7-carboxylic acid], under setting [1], the inhibition (in general, the relative decrease from the control value, in per cent) at 10 µM was determined as 87.3%.

With `CCN1C[C@@H]2C[C@@](N)(C(=O)O)[C@@H](CCCB(O)O)[C@@H]2C1` [Example 12, (3aR,4S,5S,6aR)-5-amino-4-(3-boronopropyl)-2-ethyloctahydrocyclopenta[c]pyrrole-5-carboxylic acid], under setting [1], the inhibition at 10 µM came to 85.3%.

With `C[C@H](N)C(=O)N1CCCC12CCC(N)(C(=O)O)C(CCCB(O)O)C2` (stereo partly drawn) [Example 26, 8-amino-1-((S)-2-aminopropanoyl)-7-(3-boronopropyl)-1-azaspiro[4.5]decane-8-carboxylic acid hydrochloride], under setting [2], the inhibition at 10 µM amounted to 45.2%.

As for `CN[C@@]1(C(=O)O)C[C@H]2CNC[C@H]2[C@@H]1CCCB(O)O` [Example 22, (3aR,4S,5S,6aR)-4-(3-boronopropyl)-5-(methylamino)octahydrocyclopenta[c]pyrrole-5-carboxylic acid], under setting [1], the inhibition at 10 µM came out at 93.9%.

On to `NC1(C(=O)O)C2CNC(C2)C1CCCB(O)O` (centres unmarked) [Example 24, 5-amino-6-(3-boronopropyl)-2-azabicyclo[2.2.1]heptane-5-carboxylic acid], for which the inhibition at 100 µM under setting [3] stood at 95.9%.

As for `N[C@@]1(C(=O)O)C[C@H]2C[C@H](O)C[C@H]2[C@@H]1CCCB(O)O` [Example 44b, (1S,2S,3aS,5S,6aR)-2-amino-1-(3-boronopropyl)-5-hydroxyoctahydropentalene-2-carboxylic acid], the IC50 (as a rule, the concentration needed to halve the response being measured) was determined as 178 nM. The inhibition at 10 µM under setting [1] stood at 97.4%.

Regarding `NCC(=O)N1C[C@@H]2CC(N)(C(=O)O)C(CCCB(O)O)[C@@H]2C1` (stereo in doubt) [Example 16, 5-amino-2-(2-aminoacetyl)-4-(3-boronopropyl)octahydrocyclopenta[c]pyrrole-5-carboxylic acid], the inhibition at 10 µM under setting [1] worked out at 97.9%.

For `N[C@H]1C[C@@H]2C[C@@](N)(C(=O)O)[C@@H](CCCB(O)O)[C@@H]2C1` [Example 45, (1S,2S,3aR,5S,6aR)-2,5-diamino-1-(3-boronopropyl)octahydropentalene-2-carboxylic acid], the inhibition at 10 µM under setting [1] amounted to 99.4%.

As for `NC1(C(=O)O)c2cccnc2CC1CCCB(O)O` (centres unmarked) [Example 39, 5-amino-6-(3-boronopropyl)-6,7-dihydro-5H-cyclopenta[b]pyridine-5-carboxylic acid], under setting [1], the inhibition at 10 µM is 94.7%.

Consider `NC1(C(=O)O)C(CCCB(O)O)C[C@H]2NCC[C@H]21` (mixture of isomers) [Example 20f, (3aR,6aR)-4-amino-5-(3-boronopropyl)octahydrocyclopenta[b]pyrrole-4-carboxylic acid], for which, under setting [2], the inhibition at 10 µM is 99.2%.

As to `N[C@@]1(C(=O)O)C[C@H]2CNC[C@H]2[C@@H]1CCCB(O)O` [Example 1a], the inhibition at 100 µM under setting [3] is 104%.

As for `C[C@H](N)C(=O)N[C@H]1C[C@@H]2C[C@@](N)(C(=O)O)[C@@H](CCCB(O)O)[C@@H]2C1` [Example 46, (1S,2S,3aR,5S,6aR)-2-amino-5-((S)-2-aminopropanamido)-1-(3-boronopropyl)octahydropentalene-2-carboxylic acid], the IC50 was found to be 529 nM. Under setting [1], the inhibition at 10 µM amounted to 96.8%.

For `CC(=O)N1C[C@@H]2C[C@@](N)(C(=O)O)[C@@H](CCCB(O)O)[C@@H]2C1` [Example 7, (3aR,4S,5S,6aR)-2-acetyl-5-amino-4-(3-boronopropyl)octahydrocyclopenta[c]pyrrole-5-carboxylic acid], under setting [1], the inhibition at 10 µM stood at 72.8%.

As for `NC1(C(=O)O)CC2(CNC2)CC1CCCB(O)O` (centres unmarked) [Example 35a, 6-amino-7-(3-boronopropyl)-2-azaspiro[3.4]octane-6-carboxylic acid], the IC50 was 237 nM. Further, the inhibition at 10 µM under setting [1] was found to be 99.7%.

“(1S,2S,3aS,5S,6R,6aR)-2-amino-1-(3-boronopropyl)-6-fluoro-5-hydroxyoctahydropentalene-2-carboxylate [Example 52a]”: the IC50 was 220 nM. Moreover, the “Percent Inhibition at Top Dose” value (Top Dose 10000 nM) was found to be 96.25%.

Turning to `N[C@@]1(C(=O)O)C[C@H]2C[C@@H](O)C[C@H]2[C@@H]1CCCB(O)O` [Example 44a, (1S,2S,3aS,5R,6aR)-2-amino-1-(3-boronopropyl)-5-hydroxyoctahydropentalene-2-carboxylic acid], the half-maximal inhibitory concentration (IC50) stood at 259 nM. In addition, under setting [1], the inhibition at 10 µM was 97.1%.

Turning to `CN(C)CC(=O)N1C[C@@H]2CC(N)(C(=O)O)C(CCCB(O)O)[C@@H]2C1` (stereo in doubt) [Example 19, 5-amino-4-(3-boronopropyl)-2-(2-(dimethylamino)acetyl)octahydrocyclopenta[c]pyrrole-5-carboxylic acid], the inhibition at 16 µM (Top Dose 16000 nM, read-out: Percent Inhibition at Top Dose) was 82.7%.

As to “(1S,2S,3aR,5S,6aR)-2-amino-1-(3-boronopropyl)-5-(methylamino)octahydropentalene-2-carboxylate [Example 51b]”, the concentration for half-maximal inhibition (IC50) was determined as 20.5 nM. Besides, where the note is “Top Dose 10000 nM”, the “Percent Inhibition at Top Dose” value was 98.67%.

Turning to `N[C@]1(C(=O)O)[C@H](CCCB(O)O)C[C@H]2NCC[C@H]21` [Example 20b, (3aR,4R,5R,6aR)-4-amino-5-(3-boronopropyl)octahydrocyclopenta[b]pyrrole-4-carboxylic acid], the inhibition at 10 µM under setting [2] came to 101%.

Regarding `CC(C)[C@H](N)C(=O)N[C@H]1C[C@@H]2C[C@@](N)(C(=O)O)[C@@H](CCCB(O)O)[C@@H]2C1` [Example 47, (1S,2S,3aR,5S,6aR)-2-amino-5-((S)-2-amino-3-methylbutanamido)-1-(3-boronopropyl)octahydropentalene-2-carboxylic acid], the concentration for half-maximal inhibition (IC50) is 522 nM. For the same compound, the inhibition at 10 µM under setting [1] is 94.2%.

For `N[C@@]1(C(=O)O)C[C@H]2C[C@@H](NCCO)C[C@H]2[C@@H]1CCCB(O)O` [Example 48, (1S,2S,3aR,5R,6aR)-2-amino-1-(3-boronopropyl)-5-((2-hydroxyethyl)amino)octahydropentalene-2-carboxylic acid], under setting [1], the inhibition at 10 µM was determined as 98.4%.

`CC(=O)N1C[C@@H]2CC(N)(C(=O)O)C(CCCB(O)O)[C@@H]2C1` (mixture of isomers) [Example 13a, rac-(3aR,6aR)-2-acetyl-5-amino-4-(3-boronopropyl)octahydrocyclopenta[c]pyrrole-5-carboxylic acid]: the inhibition at 10 µM under setting [1] amounted to 99%.

For `CN(C)[C@@H]1C[C@@H]2C[C@@](N)(C(=O)O)[C@@H](CCCB(O)O)[C@@H]2C1` [Example 50, (1S,2S,3aR,5R,6aR)-2-amino-1-(3-boronopropyl)-5-(dimethylamino)octahydropentalene-2-carboxylic acid], the inhibition at 10 µM under setting [1] amounted to 97.8%.

In the case of `N[C@@]1(C(=O)O)C[C@H]2CN(Cc3ccc(F)cc3)C[C@H]2[C@@H]1CCCB(O)O` [Example 3, (3aR,4S,5S,6aR)-5-amino-4-(3-boronopropyl)-2-(4-fluorobenzyl)octahydrocyclopenta[c]pyrrole-5-carboxylic acid], the inhibition at 10 µM under setting [1] was determined as 99.8%.

`NC1(C(=O)O)CC2CCCC2C1CCCB(O)O` (centres unmarked) [Example 34a, 2-amino-1-(3-boronopropyl)octahydropentalene-2-carboxylic acid]: the inhibition at 10 µM under setting [1] amounted to 22.2%.

In the case of `NC1(C(=O)O)C(CCCB(O)O)C[C@H]2C[C@H]21` (relative stereo) [Example 36a, rel-(1R,5R)-2-amino-3-(3-boronopropyl)bicyclo[3.1.0]hexane-2-carboxylic acid], the inhibition at 10 µM under setting [1] was 93%.

Turning to “(1S,2S,3aR,5R,6R,6aR)-2-amino-1-(3-boronopropyl)-6-fluoro-5-(methylamino)octahydropentalene-2-carboxylate [Example 53b]”, the IC50 amounted to 6.93 nM. Further, under “Top Dose 10000 nM”, the “Percent Inhibition at Top Dose” value is 100%.

Consider `CN(C)C[C@]12C[C@H]1CC(CCCB(O)O)C2(N)C(=O)O` (stereo partly drawn) [Example 33a, (1S,5R)-2-amino-3-(3-boronopropyl)-1-((dimethylamino)methyl)bicyclo[3.1.0]hexane-2-carboxylic acid], for which, under setting [1], the inhibition at 10 µM is 62.7%.

Turning to `NC(=O)N1CC2CC(N)(C(=O)O)C(CCCB(O)O)C2C1` (single isomer, unassigned) [Example 17a, 5-amino-4-(3-boronopropyl)-2-carbamoyloctahydrocyclopenta[c]pyrrole-5-carboxylic acid], the inhibition at 10 µM under setting [1] is 90.6%.

With `N[C@]1(C(=O)O)[C@H](CCCB(O)O)C[C@H]2C[C@H]21` [Example 36b, (1R,2R,3R,5R)-2-amino-3-(3-boronopropyl)bicyclo[3.1.0]hexane-2-carboxylic acid], the inhibition at 10 µM under setting [1] came to 47.4%.
